Measurements as given in article PMC3006138, “Fexinidazole – A New Oral Nitroimidazole Drug Candidate Entering Clinical Development for the Treatment of Sleeping Sickness” (PLoS Neglected Tropical Diseases, 2010).
Where two headings read alike, the source gives them in different places.

Test: Rat 28-day toxicokinetics
Assay type: in vivo
Conditions: plasma, po; for half-life: read-out: apparent terminal half-life (converted); for AUC: read-out: AUC within 24 hours post dosing
Procedure: In the rat repeated-dose toxicokinetic study, fexinidazole was administered orally by gavage once a day for 28 consecutive days to ten or fifteen Crl:CD (SD)IGS BR rats/sex/group at doses of 50, 200, or 800 mg/kg/day. A control group received the vehicle alone (5% Tween 80/0.5% methocel). Ten animals/sex/group were sacrificed at the end of the treatment period on day 29 or 30 of study. The remaining 5 animals/sex/group in the control and high-dose groups were sacrificed on day 43 at the end of a 2-weeks observation period. Systemic exposure to fexinidazole and its sulfoxide and sulfone metabolites was evaluated in three additional animals/sex/group. Samples were taken at predose, and 30 min, 1, 2, 4, 8 and 24 h after dosing on days 1, 14, and 28, and in addition at 48 and 72 h after treatment on day 28.
Toxicokinetic Report for the study No. 0504-2007
SD Standard deviation of the mean […]
t1/2,z Terminal half-life tmax Time to peak plasma concentration
ULOQ Upper limit of quantification
The study was conducted according to the study protocol and related amendment.
Fexinidazole was orally given by gavage once a day for 28 days to male and female Sprague Dawley rats according to the following scheme
Fexinidazole was suspended with 5% Tween 80 in 0.5% Methyl cellulose 400 cP.
6.2. Sample Collection and Handling
Blood samples (about 0.25 mL/sampling time) were withdrawn from retro-orbital sinus plexus under isofluorane anesthesia and put in heparinized plastic tubes kept on a ice-water bath, then centrifuged for 10 min at 1200g at +4°C and two aliquots of about 50 μL of plasma were stored in a freezer at -80°C until analysis. Blood was taken from three rats/gender/dose on Days 1 and 14 at pre-dose and 0.5, 1, 2, 4, 8 and 24 hours after dosing, on Day 28 at pre-dose and 1, 2, 4, 8, 24, 48 and 72 hours after dosing. After the administration of the vehicle, the samples were taken from three rats/gender at pre-dose and […]
6.3. Bioanalytical Method
Rat plasma concentrations of Fexinidazole and its sulfoxide (M1) and sulfone (M2) metabolites were determined by a validated LC/MS/MS method. The calibration range for the assay was 5-1000 ng/mL for Fexinidazole and 25-25000 ng/mL for M1 and M2.
Study samples containing analytes concentrations above the upper limit of quantitation were diluted with blank matrix prior to analysis.
6.4. Pharmacokinetic Calculations
Pharmacokinetic evaluation was carried out using non-compartmental approach with the aid […]
Excel spreadsheet (Microsoft Inc., Seattle, USA). […]
In the calculations, the undetectable concentrations between detectable ones were ignored.
After each dose level, Cmax and tmax of Fexinidazole and sulfoxide and sulfone metabolites […]
linear trapezoidal rule up to the last detectable concentration. On Day 28, since the blood […]
24 hours post dosing was calculated and denoted AUC0-24. This AUC was calculated in order to compare AUC values on Day 28 to those on Day 1 and Day 14. On Day 28, in addition, the half-life of the terminal phase, t1/2,z, was determined by linear regression analysis of the natural-log concentration vs. time curve, where t1/2,z = ln(2)/slope of the regression line.
Fexinidazole and metabolites accumulation ratios, based on Cmax (RA,Cmax), AUC0-24 (RA,AUC0-24) and AUC0-t(last) (RA,AUC0-t(last)), were calculated as the ratio between the parameters obtained on Day 14 and Day 28 to the corresponding one at Day 1. […]
pharmacokinetic parameters of each compound sorted by dose, gender and day of dosing. […]
compound are reported in Tables 1 and 2, whilst individual and mean parameters of each […]
Individual and mean (±SD, CV%) plasma
2A1 - 19A1 of Appendix 1. Individual plasma concentrations of Fexinidazole and both metabolites are plot in Figures 1 - 9, whilst the mean concentrations are plot in Figures 10 - 15. Mean normalized Cmax and AUC0-t(last) values of Fexinidazole and metabolites vs. dose are plot in Figures 16 - 21.
In-study bioanalytical validation data are reported in Appendix 2. All analytical batches met […]

[1] = Sprague-Dawley (Crl:CD (SD)IGS BR), 50 mg/kg/day, 50 mg/kg/day po, day 1
[2] = Sprague-Dawley (Crl:CD (SD)IGS BR), 50 mg/kg/day, 50 mg/kg/day po, day 14
[3] = Sprague-Dawley (Crl:CD (SD)IGS BR), 200 mg/kg/day, 200 mg/kg/day po, day 1
[4] = both sexes, Sprague-Dawley (Crl:CD (SD)IGS BR), 200 mg/kg/day, 200 mg/kg/day po, day 14
[5] = both sexes, Sprague-Dawley (Crl:CD (SD)IGS BR), 800 mg/kg/day, 800 mg/kg/day po, day 1
[6] = both sexes, Sprague-Dawley (Crl:CD (SD)IGS BR), 800 mg/kg/day, 800 mg/kg/day po, day 14

Cn1c([N+](=O)[O-])cnc1COc1ccc(S(C)(=O)=O)cc1 [Fexinidazole sulfone]
half-life (Sprague Dawley (Crl:CD (SD)IGS BR), 50 mg/kg/day, Day 28, female): 13 h | half-life (Sprague Dawley (Crl:CD (SD)IGS BR), 50 mg/kg/day, Day 28, male): 6.1 ± 1.2 h | half-life (Sprague Dawley (Crl:CD (SD)IGS BR), 200 mg/kg/day, Day 28, female): 7.3 h | half-life (Sprague Dawley (Crl:CD (SD)IGS BR), 200 mg/kg/day, Day 28, male): 7.5 h | half-life (Sprague Dawley (Crl:CD (SD)IGS BR), 800 mg/kg/day, Day 28, female (n=2)): 11 h | half-life (Sprague Dawley (Crl:CD (SD)IGS BR), 800 mg/kg/day, Day 28, male): 10 h | Cmax [1]: 2920 ± 2260 ng/mL | Tmax [1]: 7.33 ± 1.63 h | AUC(0-t) (Sprague-Dawley (Crl:CD (SD)IGS BR), 50 mg/kg/day, 50 mg/kg/day po, day 1, read-out: AUC0-t(last)): 36.1 ± 28.6 µg·h/mL | Cmax [2]: 6380 ± 2300 ng/mL | Tmax [2]: 6 ± 2.19 h | AUC(0-t) (Sprague-Dawley (Crl:CD (SD)IGS BR), 50 mg/kg/day, 50 mg/kg/day po, day 14, read-out: AUC0-t(last)): 89.6 ± 34.1 µg·h/mL | AUC (Sprague-Dawley (Crl:CD (SD)IGS BR), 50 mg/kg/day, Day 28, female): 175 µg·h/mL | AUC (Sprague-Dawley (Crl:CD (SD)IGS BR), 50 mg/kg/day, Day 28, male): 106 µg·h/mL | Cmax [3]: 9290 ± 1750 ng/mL | Tmax [3]: 8 h | AUC (Sprague-Dawley (Crl:CD (SD)IGS BR), 200 mg/kg/day, Day 28, female): 341 µg·h/mL | AUC (Sprague-Dawley (Crl:CD (SD)IGS BR), 200 mg/kg/day, Day 28, male): 341 µg·h/mL | AUC (Sprague-Dawley (Crl:CD (SD)IGS BR), 800 mg/kg/day, Day 28, female (n=2)): 572 µg·h/mL | AUC (Sprague-Dawley (Crl:CD (SD)IGS BR), 800 mg/kg/day, Day 28, male): 459 µg·h/mL | AUC(0-t) (both sexes, Sprague-Dawley (Crl:CD (SD)IGS BR), 200 mg/kg/day, 200 mg/kg/day po, day 1, read-out: AUC0-t(last)): 126 ± 17.5 µg·h/mL | Cmax [4]: 20200 ± 2420 ng/mL | Tmax [4]: 7.33 ± 1.63 h | AUC(0-t) (both sexes, Sprague-Dawley (Crl:CD (SD)IGS BR), 200 mg/kg/day, 200 mg/kg/day po, day 14, read-out: AUC0-t(last)): 287 ± 36.5 µg·h/mL | Cmax [5]: 42600 ± 13100 ng/mL | Tmax [5]: 10.7 ± 6.53 h | AUC(0-t) (both sexes, Sprague-Dawley (Crl:CD (SD)IGS BR), 800 mg/kg/day, 800 mg/kg/day po, day 1, read-out: AUC0-t(last)): 574 ± 256 µg·h/mL | Cmax [6]: 40500 ± 13000 ng/mL | Tmax [6]: 6.67 ± 2.07 h | AUC(0-t) (both sexes, Sprague-Dawley (Crl:CD (SD)IGS BR), 800 mg/kg/day, 800 mg/kg/day po, day 14, read-out: AUC0-t(last)): 543 ± 252 µg·h/mL | Cmax (female, Sprague Dawley (Crl:CD (SD)IGS BR), 50 mg/kg, Day 1, female): 4420 ± 2410 ng/mL | AUC(0-t) (female, Sprague Dawley (Crl:CD (SD)IGS BR), 50 mg/kg, Day 1, female, read-out: AUC0-t(last)): 55.8 ± 28.1 µg·h/mL | Cmax (female, Sprague Dawley (Crl:CD (SD)IGS BR), 50 mg/kg/day, Day 28, female): 10700 ng/mL | Cmax (female, Sprague Dawley (Crl:CD (SD)IGS BR), 200 mg/kg, Day 1, female): 10000 ± 815 ng/mL | AUC(0-t) (female, Sprague Dawley (Crl:CD (SD)IGS BR), 200 mg/kg, Day 1, female, read-out: AUC0-t(last)): 134 ± 10.8 µg·h/mL | Cmax (female, Sprague Dawley (Crl:CD (SD)IGS BR), 200 mg/kg/day, Day 28, female): 21400 ng/mL | Cmax (female, Sprague Dawley (Crl:CD (SD)IGS BR), 800 mg/kg, Day 1, female): 44800 ± 20100 ng/mL | AUC(0-t) (female, Sprague Dawley (Crl:CD (SD)IGS BR), 800 mg/kg, Day 1, female, read-out: AUC0-t(last)): 683 ± 241 µg·h/mL | Cmax (female, Sprague Dawley (Crl:CD (SD)IGS BR), 800 mg/kg/day, Day 28, female (n=2)): 41900 ng/mL | AUC(0-t) (female, Sprague-Dawley (Crl:CD (SD)IGS BR), 50 mg/kg/day, Day 28, female, read-out: AUC0-t(last)): 197 µg·h/mL | AUC(0-t) (female, Sprague-Dawley (Crl:CD (SD)IGS BR), 200 mg/kg/day, Day 28, female, read-out: AUC0-t(last)): 448 µg·h/mL | AUC(0-t) (female, Sprague-Dawley (Crl:CD (SD)IGS BR), 800 mg/kg/day, Day 28, female (n=2), read-out: AUC0-t(last)): 738 µg·h/mL | Cmax (male, Sprague Dawley (Crl:CD (SD)IGS BR), 50 mg/kg, Day 1, male): 1420 ± 393 ng/mL | AUC(0-t) (male, Sprague Dawley (Crl:CD (SD)IGS BR), 50 mg/kg, Day 1, male, read-out: AUC0-t(last)): 16.5 ± 9.76 µg·h/mL | Cmax (male, Sprague Dawley (Crl:CD (SD)IGS BR), 50 mg/kg/day, Day 28, male): 7750 ng/mL | Cmax (male, Sprague Dawley (Crl:CD (SD)IGS BR), 200 mg/kg, Day 1, male): 8550 ± 2310 ng/mL | AUC(0-t) (male, Sprague Dawley (Crl:CD (SD)IGS BR), 200 mg/kg, Day 1, male, read-out: AUC0-t(last)): 119 ± 21.9 µg·h/mL | Cmax (male, Sprague Dawley (Crl:CD (SD)IGS BR), 200 mg/kg/day, Day 28, male): 24200 ng/mL | Cmax (male, Sprague Dawley (Crl:CD (SD)IGS BR), 800 mg/kg, Day 1, male): 40300 ± 1560 ng/mL | AUC(0-t) (male, Sprague Dawley (Crl:CD (SD)IGS BR), 800 mg/kg, Day 1, male, read-out: AUC0-t(last)): 465 ± 264 µg·h/mL | Cmax (male, Sprague Dawley (Crl:CD (SD)IGS BR), 800 mg/kg/day, Day 28, male): 33000 ng/mL | AUC(0-t) (male, Sprague-Dawley (Crl:CD (SD)IGS BR), 50 mg/kg/day, Day 28, male, read-out: AUC0-t(last)): 113 µg·h/mL | AUC(0-t) (male, Sprague-Dawley (Crl:CD (SD)IGS BR), 200 mg/kg/day, Day 28, male, read-out: AUC0-t(last)): 387 µg·h/mL | AUC(0-t) (male, Sprague-Dawley (Crl:CD (SD)IGS BR), 800 mg/kg/day, Day 28, male, read-out: AUC0-t(last)): 509 µg·h/mL
